Experimental data taken from ChEMBL document CHEMBL1134987, “Novel spirocyclic pyrrolidones as P2/P1 mimetics in potent inhibitors of HIV-1 protease” (Bioorg Med Chem Lett, 2002).

molecular target: Human immunodeficiency virus type 1 protease (Human immunodeficiency virus 1, UniProt Q72874); assay: The compound was tested for its inhibition against HIV-1 protease

Row | Structure (SMILES) | Ki [nM]
1 | O=C(N[C@H]1c2ccccc2C[C@H]1O)[C@H](Cc1ccccc1)C[C@H](O)CN1C(=O)C2(CCCCC2)C[C@@H]1Cc1ccccc1 | 50
2 | COc1ccc(S(=O)(=O)N(CC2CCCC2)C[C@@H](O)CN2C(=O)[C@@H](Cc3ccccc3)C[C@@H]2Cc2ccccc2)cc1 | 0.8
3 | NC(C(=O)[C@H](Cc1ccccc1)C[C@H](O)CN1C(=O)[C@@H](Cc2ccccc2)C[C@@H]1Cc1ccccc1)[C@H]1c2ccccc2C[C@H]1O (stereo partly specified) | 0.05
4 | COc1ccc(S(=O)(=O)N(CC2CCCC2)C[C@@H](O)CN2C(=O)C3(CCCCC3)OC[C@@H]2Cc2ccccc2)cc1 | 1.7
5 | O=C(N[C@H]1c2ccccc2C[C@H]1O)[C@H](Cc1ccccc1)C[C@H](O)CN1C(=O)C2(CCOCC2)C[C@@H]1Cc1ccccc1 | 23
6 | O=C(N[C@H]1c2ccccc2C[C@H]1O)[C@H](Cc1ccccc1)C[C@H](O)CN1C(=O)C2(CCN(Cc3ccccc3)CC2)C[C@@H]1Cc1ccccc1 | 2500
